Columns and labels:
MK-2206 = compound: NC1(c2ccc(-c3nc4ccn5c(=O)[nH]nc5c4cc3-c3ccccc3)cc2)CCC1 [MK-2206]; settings: max 10 µM
Summary of the method: (§1)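 Plates with 1536 wells received cancer cell lines in 7.5 μl of DMEM/F12 or RPMI containing 10% FBS. After 24 hours at 37°C and 5% CO2, cells were dosed for 72 hours with final DMSO typically 0.2%, and viability was read by CellTiter-Glo 2.0 luminescence scaled between blank-well and DMSO-well means. The single-agent IC50 was taken from a logistic fit of the dose responses made with a non-linear mixed effects model, that logistic curve having two parameters.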

AZD2811 = compound: CCN(CCO)CCCOc1ccc2c(Nc3cc(CC(=O)Nc4cccc(F)c4)[nH]n3)ncnc2c1 [AZD2811]; settings: max 1 µM
Summary of the method: as §1

AZD5991 = compound: Cc1c2c(nn1C)CSCc1cc(n(C)n1)CSc1cc(c3ccccc3c1)OCCCc1c(C(=O)O)n(C)c3c-2c(Cl)ccc13 [AZD5991]; settings: max 1 µM
Summary of the method: as §1

Gefitinib = compound: COc1cc2ncnc(Nc3ccc(F)c(Cl)c3)c2cc1OCCCN1CCOCC1 [Gefitinib]; settings: max 10 µM
Summary of the method: as §1

AZD5153 = compound: COc1nnc2ccc(N3CCC(c4ccc(OCCN5CCN(C)C(=O)[C@H]5C)cc4)CC3)nn12 [AZD5153]; settings: max 1 µM
Summary of the method: as §1

SN-38 = compound: CCc1c2c(nc3ccc(O)cc13)-c1cc3c(c(=O)n1C2)COC(=O)[C@]3(O)CC [SN-38]; settings: max 0.3 µM
Summary of the method: as §1

Lapatinib = compound: CS(=O)(=O)CCNCc1ccc(-c2ccc3ncnc(Nc4ccc(OCc5cccc(F)c5)c(Cl)c4)c3c2)o1 [Lapatinib]; settings: max 10 µM
Summary of the method: as §1

Prexasertib = compound: COc1cccc(OCCCN)c1-c1cc(Nc2cnc(C#N)cn2)n[nH]1 [Prexasertib]; settings: max 1 µM
Summary of the method: as §1

Doxorubicin = compound: COc1cccc2c1C(=O)c1c(O)c3c(c(O)c1C2=O)C[C@@](O)(C(=O)CO)C[C@@H]3O[C@H]1C[C@H](N)[C@H](O)[C@H](C)O1 [Doxorubicin]; settings: max 1 µM
Summary of the method: as §1

AZD7648 = compound: Cc1cc2ncnn2cc1Nc1ncc2c(n1)n(C1CCOCC1)c(=O)n2C [AZD7648]; settings: max 10 µM
Summary of the method: as §1

Venetoclax = compound: CC1(C)CCC(CN2CCN(c3ccc(C(=O)NS(=O)(=O)c4ccc(NCC5CCOCC5)c([N+](=O)[O-])c4)c(Oc4cnc5[nH]ccc5c4)c3)CC2)=C(c2ccc(Cl)cc2)C1 [Venetoclax]; settings: max 1 µM
Summary of the method: as §1

Dasatinib = compound: CC1=C(C(=CC=C1)Cl)NC(=O)C2=CN=C(S2)NC3=CC(=NC(=N3)C)N4CCN(CC4)CCO [Dasatinib]; settings: max 2 µM
Summary of the method: as §1

Crizotinib = compound: C[C@@H](Oc1cc(-c2cnn(C3CCNCC3)c2)cnc1N)c1c(Cl)ccc(F)c1Cl [Crizotinib]; settings: max 10 µM
Summary of the method: as §1

Capivasertib = compound: C1CN(CCC1(C(=O)N[C@@H](CCO)C2=CC=C(C=C2)Cl)N)C3=NC=NC4=C3C=CN4 [Capivasertib]; settings: max 10 µM
Summary of the method: as §1

AZD6738 = compound: C[C@@H]1COCCN1C2=NC(=NC(=C2)C3(CC3)[S@](=N)(=O)C)C4=C5C=CNC5=NC=C4 [AZD6738]; settings: max 10 µM
Summary of the method: as §1

Taselisib = compound: Cc1nc(-c2cn3c(n2)-c2ccc(-c4cnn(C(C)(C)C(N)=O)c4)cc2OCC3)n(C(C)C)n1 [Taselisib]; settings: max 10 µM
Summary of the method: as §1

AZD4320 = compound: CN(CC[C@H](CSC1=CC=CC=C1)NC2=C(C=C(C=C2)S(=O)(=O)NC(=O)C3=CC=C(C=C3)N4CCC(CC4)[C@H](C5=CC=CC=C5C6=CC=C(C=C6)Cl)O)S(=O)(=O)C(F)(F)F)CCO [AZD4320]; settings: max 1 µM
Summary of the method: as §1

AZD0156 = compound: CN(C)CCCOc1ccc(-c2ccc3ncc4c(c3c2)n(C2CCOCC2)c(=O)n4C)cn1 [AZD0156]; settings: max 3 µM
Summary of the method: as §1

Savolitinib = compound: C[C@@H](c1ccc2nccn2c1)n1nnc2ncc(-c3cnn(C)c3)nc21 [Savolitinib]; settings: max 1 µM
Summary of the method: as §1

Selumetinib = compound: Cn1cnc2c(F)c(Nc3ccc(Br)cc3Cl)c(C(=O)NOCCO)cc21 [Selumetinib]; settings: max 10 µM
Summary of the method: as §1

Alisertib = compound: COc1cc(Nc2ncc3c(n2)-c2ccc(Cl)cc2C(c2c(F)cccc2OC)=NC3)ccc1C(=O)O [Alisertib]; settings: max 10 µM
Summary of the method: as §1

SG3199 = compound: CC1=CN2[C@@H](C1)C=NC3=CC(=C(C=C3C2=O)OC)OCCCCCOC4=C(C=C5C(=C4)N=C[C@@H]6CC(=CN6C5=O)C)OC [SG3199]; settings: max 0.001 µM
Summary of the method: as §1

AZD1390 = compound: CC(C)n1c(=O)n(C)c2cnc3cc(F)c(-c4ccc(OCCCN5CCCCC5)nc4)cc3c21 [AZD1390]; settings: max 0.3 µM
Summary of the method: as §1

Trametinib = compound: CC(=O)Nc1cccc(-n2c(=O)n(C3CC3)c(=O)c3c(Nc4ccc(I)cc4F)n(C)c(=O)c(C)c32)c1 [Trametinib]; settings: max 1 µM
Summary of the method: as §1

Palbociclib = compound: CC(=O)c1c(C)c2cnc(Nc3ccc(N4CCNCC4)cn3)nc2n(C2CCCC2)c1=O [Palbociclib]; settings: max 10 µM
Summary of the method: as §1

AZD8186 = compound: C[C@@H](Nc1cc(F)cc(F)c1)c1cc(C(=O)N(C)C)cc2c(=O)cc(N3CCOCC3)oc12 [AZD8186]; settings: max 3 µM
Summary of the method: as §1

AZD1775 = compound: C=CCn1c(=O)c2cnc(Nc3ccc(N4CCN(C)CC4)cc3)nc2n1-c1cccc(C(C)(C)O)n1 [AZD1775]; settings: max 3 µM
Summary of the method: as §1

Olaparib = compound: O=C(c1cc(Cc2n[nH]c(=O)c3ccccc23)ccc1F)N1CCN(C(=O)C2CC2)CC1 [Olaparib]; settings: max 10 µM
Summary of the method: as §1

NCI-H596 (Other Solid Carcinomas)
IC50, cell viability 72 h (MK-2206): > 10000 nM | IC50, cell viability 72 h (AZD2811): > 1000 nM | IC50, cell viability 72 h (AZD5991): > 1000 nM | IC50, cell viability 72 h (Gefitinib): > 10000 nM | IC50, cell viability 72 h (AZD5153): 301 nM | IC50, cell viability 72 h (SN-38): > 300 nM | IC50, cell viability 72 h (Lapatinib): > 10000 nM | IC50, cell viability 72 h (Prexasertib): 866 nM | IC50, cell viability 72 h (Doxorubicin): > 1000 nM | IC50, cell viability 72 h (AZD7648): > 10000 nM | IC50, cell viability 72 h (Venetoclax): > 1000 nM | IC50, cell viability 72 h (Dasatinib): > 2000 nM | IC50, cell viability 72 h (Crizotinib): > 10000 nM | IC50, cell viability 72 h (Capivasertib): > 10000 nM | IC50, cell viability 72 h (AZD6738): > 10000 nM | IC50, cell viability 72 h (Taselisib): 4950 nM | IC50, cell viability 72 h (AZD4320): > 1000 nM | IC50, cell viability 72 h (AZD0156): > 3000 nM | IC50, cell viability 72 h (Savolitinib): > 1000 nM | IC50, cell viability 72 h (Selumetinib): > 10000 nM | IC50, cell viability 72 h (Alisertib): > 10000 nM | IC50, cell viability 72 h (SG3199): > 1 nM | IC50, cell viability 72 h (AZD1390): > 300 nM | IC50, cell viability 72 h (Trametinib): > 1000 nM | IC50, cell viability 72 h (Palbociclib): > 10000 nM | IC50, cell viability 72 h (AZD8186): > 3000 nM | IC50, cell viability 72 h (AZD1775): 1450 nM | IC50, cell viability 72 h (Olaparib): > 10000 nM

NCI-H1876 (Small Cell Lung Carcinoma)
IC50, cell viability 72 h (MK-2206): > 10000 nM | IC50, cell viability 72 h (AZD2811): 149 nM | IC50, cell viability 72 h (AZD5991): > 1000 nM | IC50, cell viability 72 h (Gefitinib): > 10000 nM | IC50, cell viability 72 h (AZD5153): > 1000 nM | IC50, cell viability 72 h (SN-38): 1.03 nM | IC50, cell viability 72 h (Lapatinib): > 10000 nM | IC50, cell viability 72 h (Prexasertib): 29.2 nM | IC50, cell viability 72 h (Doxorubicin): 221 nM | IC50, cell viability 72 h (AZD7648): > 10000 nM | IC50, cell viability 72 h (Venetoclax): > 1000 nM | IC50, cell viability 72 h (Dasatinib): > 2000 nM | IC50, cell viability 72 h (Crizotinib): 5910 nM | IC50, cell viability 72 h (Capivasertib): > 10000 nM | IC50, cell viability 72 h (AZD6738): 4710 nM | IC50, cell viability 72 h (Taselisib): 3900 nM | IC50, cell viability 72 h (AZD4320): 176 nM | IC50, cell viability 72 h (AZD0156): > 3000 nM | IC50, cell viability 72 h (Savolitinib): > 1000 nM | IC50, cell viability 72 h (Selumetinib): > 10000 nM | IC50, cell viability 72 h (Alisertib): 265 nM | IC50, cell viability 72 h (SG3199): > 1 nM | IC50, cell viability 72 h (AZD1390): > 300 nM | IC50, cell viability 72 h (Trametinib): > 1000 nM | IC50, cell viability 72 h (Palbociclib): > 10000 nM | IC50, cell viability 72 h (AZD8186): > 3000 nM | IC50, cell viability 72 h (AZD1775): 330 nM | IC50, cell viability 72 h (Olaparib): 4440 nM

OAW-28 (Ovarian Carcinoma)
IC50, cell viability 72 h (MK-2206): > 10000 nM | IC50, cell viability 72 h (AZD2811): > 1000 nM | IC50, cell viability 72 h (AZD5991): > 1000 nM | IC50, cell viability 72 h (Gefitinib): > 10000 nM | IC50, cell viability 72 h (AZD5153): > 1000 nM | IC50, cell viability 72 h (SN-38): 11.4 nM | IC50, cell viability 72 h (Lapatinib): > 10000 nM | IC50, cell viability 72 h (Prexasertib): 720 nM | IC50, cell viability 72 h (Doxorubicin): > 1000 nM | IC50, cell viability 72 h (AZD7648): > 10000 nM | IC50, cell viability 72 h (Venetoclax): > 1000 nM | IC50, cell viability 72 h (Dasatinib): > 2000 nM | IC50, cell viability 72 h (Crizotinib): > 10000 nM | IC50, cell viability 72 h (Capivasertib): > 10000 nM | IC50, cell viability 72 h (AZD6738): > 10000 nM | IC50, cell viability 72 h (Taselisib): 6130 nM | IC50, cell viability 72 h (AZD4320): 176 nM | IC50, cell viability 72 h (AZD0156): > 3000 nM | IC50, cell viability 72 h (Savolitinib): > 1000 nM | IC50, cell viability 72 h (Selumetinib): > 10000 nM | IC50, cell viability 72 h (Alisertib): > 10000 nM | IC50, cell viability 72 h (SG3199): > 1 nM | IC50, cell viability 72 h (AZD1390): > 300 nM | IC50, cell viability 72 h (Trametinib): > 1000 nM | IC50, cell viability 72 h (Palbociclib): > 10000 nM | IC50, cell viability 72 h (AZD8186): > 3000 nM | IC50, cell viability 72 h (AZD1775): > 3000 nM | IC50, cell viability 72 h (Olaparib): > 10000 nM

— the supplement of paper PMC11061612
